Where two headings read alike, the source gives them in different places.
Key:
Pyrenophora teres = assay: In vivo preventive test on Pyrenophora teres (barley); conditions: 500 ppm of active ingredient, evaluated 7-9 days after inoculation
How it was run: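 Compound formulated in N,N-dimethylformamide with alkylaryl polyglycol ether emulsifier and diluted in water, then sprayed on young barley plants at the stated application rate. Plants inoculated one day later with aqueous Pyrenophora teres spore suspension, testing preventive protection.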

Alternaria solani = assay: In vivo preventive test on Alternaria solani (tomato); conditions: 500 ppm of active ingredient, evaluated 7 days after inoculation
How it was run: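 Young tomato plants sprayed preventively with compound in DMF/alkylarylpolyglycolether emulsion diluted in water to the stated rate. Inoculation with aqueous Alternaria solani spore suspension one day after treatment.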

Aspergillus parasiticus = assay: microbe, parasite or virus in culture; format: cell-based
[1] = tested on: aflatoxines produced by Aspergillus parasiticus; assay: microbe, parasite or virus in culture; format: cell-based
Sphaerotheca fuliginea = assay: In vivo preventive test on Sphaerotheca fuliginea (cucumber); conditions: 500 ppm of active ingredient, evaluated 7 days after inoculation
Description: Solvent: 49 parts by weight of N,N-dimethylformamide Emulsifier: 1 part by weight of Alkylarylpolyglycolether To produce a suitable preparation of active compound, 1 part by weight of active compound is mixed with the stated amounts of solvent and emulsifier, and the concentrate is diluted with water to the desired concentration. To test for preventive activity, young plants are sprayed with the preparation of active compound at the stated rate of application. One day after this treatment, the plants are inoculated with an aqueous spore suspension of Sphaerotheca fuliginea. Then the plants are placed in a greenhouse at approximately 23° C. and a relative atmospheric humidity of approximately 70%.

[2] = log P by HPLC on reversed-phase column (EEC Directive 79/831 Annex V.A8); format: physicochemical
Description: In table 1, the log P values were determined in accordance with EEC Directive 79/831 Annex V.A8 by HPLC (High Performance Liquid Chromatography) on a reversed-phase column (C18), using the method described below: Temperature: 40° C.; […]

Puccinia triticina = assay: In vivo preventive test on Puccinia triticina (wheat); conditions: for pest or weed control at 500 ppm: Puccinia triticina, 192 h, read-out: Efficacy
[3] = 500 ppm of active ingredient, evaluated 8 days after inoculation
[4] = Table K, 500 ppm of active ingredient, evaluated 8 days after inoculation
[5] = Table K6, dose 500 ppm, comparison with des-fluoro analogues

| SMILES | Efficacy (Pyrenophora teres) [%] | Efficacy (Alternaria solani) [%] | % Inhibition of fungal growth at 50 μM (Aspergillus parasiticus) [%] | % Inhibition of Aflatoxin at 50 μM [1] [%] | Efficacy (Sphaerotheca fuliginea) [%] | logP [2] | Efficacy (Puccinia triticina; 500 ppm of active ingredient, evaluated 8 days after inoculation, listed as example E-13 disclosed in patent application WO-2008/101976) | pest or weed control at 500 ppm (Puccinia triticina; [3]) [%] | Efficacy (Puccinia triticina; [4]) [%] | Efficacy (Puccinia triticina; [3]) | pest or weed control at 500 ppm (Puccinia triticina; [5]) [%] | Efficacy (Puccinia triticina; [5]) [%] |
| --- | --- | --- | --- | --- | --- | --- | --- | --- | --- | --- | --- | --- |
| Cc1cccc(C)c1CC(C)CNC(=O)c1c(C(F)F)nn(C)c1F (racemic) [Example 150] | 100 | 80 | 82 | 100 | 83 | 3.44 | – | – | – | – | – | – |
| Cc1nn(C)c(F)c1C(=O)N(C(C)CCc1ccc(Cl)c(Cl)c1)C1CC1 (stereo not shown) [E-13 from WO-2008/101976, N-cyclopropyl-N-[4-(3,4-dichlorophenyl)butan-2-yl]-5-fluoro-1,3-dimethyl-1H-pyrazole-4-carboxamide, reference compound] | – | – | – | – | – | – | no protection | 0 | – | – | – | – |
| CN(CCCc1cc(Cl)ccc1Cl)C(=O)c1c(C(F)F)nn(C)c1F [Example 166] | 100 | 100 | 88 | 100 | – | 3.48 | – | – | 78 | – | – | – |
| Cc1cccc(C)c1OCC(C)N(C(=O)c1c(C(F)F)nn(C)c1F)C1CC1 (stereo not shown) [Example 155] | 100 | – | 100 | 100 | – | 3.94 | – | – | 90 | – | – | – |
| CC(C)CC1CCCCC1NC(=O)c1c(C(F)F)nn(C)c1F (stereo not shown) [Example 340] | 100 | 100 | 95 | 100 | 90 | 3.94 | – | – | – | – | – | – |
| CC1CCCC(C)(C)C1CCC(C)N(C(=O)c1c(C(F)F)nn(C)c1Cl)C1CC1 (stereo not shown) [Example 368] | 95 | 80 | 93 | 100 | 93 | 6.07 | – | – | – | – | – | – |
| CC(CCc1ccccc1C(F)(F)F)N(C(=O)c1c(C(F)F)nn(C)c1Cl)C1CC1 (stereo not shown) [Example 220] | 100 | 95 | – | – | – | 4.26 | – | – | 90 | – | – | – |
| Cn1nc(C(F)F)c(C(=O)NC2CCCCC2Oc2ccccc2)c1Cl (stereo not shown) [Example 246] | – | – | – | – | – | 3.76 | – | – | 95 | – | – | – |
| Cc1nn(C)c(F)c1C(=O)NC1CCCCC1C1CCCCC1 (stereo not shown) [compound CMP4, N-[1,1′-bi(cyclohexyl)-2-yl]-5-fluoro-1,3-dimethyl-1H-pyrazole-4-carboxamide, reference compound] | – | – | – | – | – | – | – | – | – | no protection | 0 | – |
| CC(CCc1ccc(C(F)(F)F)cc1)NC(=O)c1c(C(F)F)nn(C)c1Cl (stereo not shown) [Example 70] | 100 | 95 | 78 | 97 | 75 | 3.63 | – | – | – | – | – | – |
| CC(CCc1ccccc1Cl)NC(=O)c1c(C(F)F)nn(C)c1F (racemic) [Example 144] | 100 | 100 | 94 | 100 | 90 | 3.21 | – | – | – | – | – | – |
| CC(CCc1ccc(C(F)(F)F)cc1)NC(=O)c1c(C(F)F)nn(C)c1F (stereo not shown) [Example 71] | 100 | 95 | 83 | 100 | 95 | 3.46 | – | – | – | – | – | – |
| Cn1cc(C(=O)NC2CCCCC2C2CCCCC2)c(C(F)F)n1 (stereo not shown) [compound CMP5, N-[1,1′-bi(cyclohexyl)-2-yl]-3-(difluoromethyl)-1-methyl-1H-pyrazole-4-carboxamide, reference compound] | – | – | – | – | – | – | – | – | – | no protection | 0 | – |
| CC(COc1ccc(Cl)cc1Cl)N(C(=O)c1cn(C)nc1C(F)F)C1CC1 (stereo not shown) [18 from WO-2010/012795, N-cyclopropyl-N-[1-(2,4-dichlorophenoxy)propan-2-yl]-3-(difluoromethyl)-1-methyl-1H-pyrazole-4-carboxamide, reference compound] | – | – | – | – | – | – | – | < 30 | – | – | – | – |
| CN(CCCc1cc(Cl)ccc1Cl)C(=O)c1c(C(F)F)nn(C)c1Cl [Example 167] | 80 | 100 | – | – | – | 3.62 | – | – | 70 | – | – | – |
| CC1CCCC(C)(C)C1CCC(C)N(C(=O)c1c(C(F)F)nn(C)c1F)C1CC1 (stereo not shown) [Example 367] | 100 | 90 | 100 | 100 | 100 | 5.81 | – | – | – | – | – | – |
| CC(C)CCC1CCCC1NC(=O)c1c(C(F)F)nn(C)c1Cl (stereo not shown) [Example 309] | 100 | 100 | 82 | 100 | 98 | 4.20 | – | – | – | – | – | – |
| Cn1nc(C(F)F)c(C(=O)N(C2CC2)C2CCCCC2C(C)(C)C)c1F (stereo not shown) [Example 350] | 100 | 90 | 100 | 100 | 100 | 4.71 | – | – | – | – | – | – |
| Cn1nc(C(F)F)c(C(=O)NC2CCCCC2C2CCCCC2)c1F (stereo not shown) [Example 374] | – | – | – | – | – | 4.34 | – | – | 100 | total protection | – | 100 |
| CC(CCc1c(Cl)cc(Cl)cc1Cl)N(C(=O)c1c(C(F)F)nn(C)c1Cl)C1CC1 (stereo not shown) [Example 214] | 100 | 80 | 93 | 100 | – | 4.31 | – | – | – | – | – | – |
| CC(CCc1ccc(Cl)cc1Cl)N(C(=O)c1c(C(F)F)nn(C)c1Cl)C1CC1 (stereo not shown) [Example 183] | 100 | 95 | 79 | 82 | – | 4.72 | – | – | – | – | – | – |
| CN(CCCc1ccccc1Cl)C(=O)c1c(C(F)F)nn(C)c1F [Example 142] | 95 | 100 | 84 | 100 | – | 3.06 | – | – | – | – | – | – |
| Cn1nc(C(F)F)c(C(=O)NCCCc2ccc(Cl)cc2Cl)c1F [Example 180] | 100 | 90 | 100 | 100 | – | 3.46 | – | – | – | – | – | – |
| CC(COc1cc(Cl)ccc1Cl)NC(=O)c1c(C(F)F)nn(C)c1Cl (stereo not shown) [Example 174] | 95 | 100 | 67 | 85 | – | 3.69 | – | – | – | – | – | – |
| CC(COc1cc(Cl)cc(Cl)c1)NC(=O)c1c(C(F)F)nn(C)c1F (racemic) [Example 121] | 100 | 90 | 98 | 100 | – | 3.72 | – | – | – | – | – | – |
| CC(CSc1ccc(Cl)cc1Cl)NC(=O)c1c(C(F)F)nn(C)c1Cl (stereo not shown) [Example 192] | 100 | 95 | 91 | 100 | – | 4.01 | – | – | – | – | – | – |
